Data on three compounds can be found in publication PMC7923269 (Journal of Personalized Medicine, 2021).

For data set [1], the system named is CYP3A. Particulars: for Inhibition ratio of urinary 1β-OH-DCA excretion: after/before inhibition by fluvoxamine + voriconazole; for Urinary 1β-OH-DCA excretion: geometric mean (95% CI).
The test system of data set [2] is CYP3A. Set-up: method as in PMID 19701237. Particulars: after clarithromycin 250 mg twice daily for five days vs baseline; p = 0.04; cited from earlier work.
In data set [3] the test system is CYP3A. In words: Oral midazolam pharmacokinetics (CYP3A phenotyping) in healthy volunteers at baseline, after inhibition and after induction. Format: in vivo, human. The settings on record: MDZ 1 mg oral; for Cmax: human, plasma, po. How it is done:
Healthy volunteers were administered, as part of the Geneva cocktail, MDZ 1 mg for CYP3A phenotyping at baseline (control session). During the inhibition session, participants received MDZ 1 mg after fluvoxamine intake (50 mg, two doses 12 h and 2 h before MDZ administration) and voriconazole intake (400 mg, one dose 2 h before MDZ administration). MDZ 1 mg was also received after a pretreatment with the inducer rifampicin (600 mg, one tablet every evening for seven days until the evening before administration of MDZ) (induction session). Urine samples were collected over 8 h after MDZ administration at each session. Venous blood samples (3 mL) were collected before (time 0) as well as 0.5, 1, 2, 3, 4, 6, and 8 h after probe drug administration. Breakfast and lunch were served approximately 1 h and 4 h, respectively, after the blood sampling. The trial is registered at http://www.clinicaltrials.gov (NCT01731067).
Analyses of MDZ and OH-MDZ in plasma were performed using a single reverse-phase high-performance liquid chromatography coupled with tandem mass spectrometry (LC-MS/MS) method as described in the study of Bosilkosvka et al..
The pharmacokinetic parameters of MDZ were obtained by standard noncompartmental methods using WinNonlin version 6.2.1 (Pharsight, Mountain View, CA, USA).
Inhibition ratios were calculated as follows:(1) Inhibition ratio = Metricafter inhibition/Metricbefore inhibition.
Similarly, induction ratios were calculated as follows:(3) Induction ratio = Metricafter induction/Metricbefore induction.

Setting [4] is: induction session (rifampicin 600 mg, 7 days).
[5] abbreviates: inhibition session (fluvoxamine + voriconazole).

Molecules are shown by their SMILES. Where two headings read alike, the source gives them in different places.

`C[C@H](CCC(=O)O)[C@H]1CC[C@H]2[C@@H]3CC[C@@H]4C[C@H](O)C[C@@H](O)[C@]4(C)[C@H]3C[C@H](O)[C@]12C` [1β-OH-DCA, 1β-hydroxy-deoxycholic acid]: the “Inhibition ratio of urinary 1β-OH-DCA excretion” value is listed as 0.62 in data set [1] and 0.62 (0.26–1.5) in data set [1] (listed as 1β-OH -DCA). The “Urinary 1β-OH-DCA excretion” value in data set [1] (baseline) is on record as 15.5 (5.8–41.3) µg/8 h; in data set [1] (setting [4]) it was 61.8 (30.9–123.3) µg/8 h; in data set [1] (setting [5]) it was 9.6 (4.1–22.5) µg/8 h.
On to `C[C@]12CCC(=O)C=C1CC[C@@H]1[C@@H]2[C@@H](O)C[C@@]2(C)[C@H]1CC[C@]2(O)C(=O)CO` [cortisol], for which the “Increase in area under the concentration-time curve of plasma endogenous cortisol” value in data set [2] was 19%.
As to `Cc1ncc2n1-c1ccc(Cl)cc1C(c1ccccc1F)=NC2` [MDZ, midazolam], the “Oral MDZ CL” value in data set [3] (baseline, geometric mean (95% CI)) was 143.0 (107.1–191.0) L/h; in data set [3] (setting [4]), 3296 (2351–4622) L/h; in data set [3] (setting [5]), 24.0 (19.7–29.3) L/h. Further, the Cmax (in general, the highest concentration seen after dosing) in data set [3] (1 mg, baseline) is 3.1 ng/mL; in data set [3] (setting [4]), 0.15 ng/mL; in data set [3] (setting [5]), 11.7 ng/mL.
